In patent EP3041353B1, “COMPOSITIONS COMPRISING BACTERIOSTATIC AGENTS AND BRILLIANT BLUE G” (priority 2013, dated 2015):

Columns and labels:
Bacillus megaterium = assay: Bacteriostatic effect of Octenidin with BBG: turbidity after 24 h incubation; type: cell-based; set-up: key: +: Bakterienwachstum nach 24 h Inkubation; -: kein Bakterienwachstum nach 24 h Inkubation; +/-: geringes Wachstum nach 24 h Inkubation
Description: (§1) Zur Untersuchung des Einflusses von BBG auf die bakteriostatische Wirkung wurden Bakterien 24 h mit erfindungsgemäßen Zusammensetzungen, Benzalkoniumchlorid (BAK) und Octenidin (Oct) als Bakteriostatikum enthielten, inkubiert. Wenn sich die Inkubationsmischung trübte, wurde das als Bakterienwachstum interpretiert. Zum Vergleich wurde Brillantblau R (BBR) anstelle von BBG eingesetzt. Die Ergebnisse sind in den Tabellen 1-4 wiedergegeben. Tabelle 1: Einfluss von BBG und BBR auf die bakteriostatische Wirkung von BAK gegenüber Escherichia coli (E. coli), + = Bakterienwachstum nach 24 h Inkubation, - = kein Bakterienwachstum nach 24 h Inkubation, R = Brillantblau R (BBR), G = Brillantblau G (BBG).
Tabelle 4: Einfluss von BBG auf die bakteriostatische Wirkung von Octenidin (Oct) gegenüber Gram-positiven Bakterien., + = Bakterienwachstum nach 24 h Inkubation, - = kein Bakterienwachstum nach 24 h Inkubation, +/- = geringes Wachstum nach 24 h Inkubation, BBG = Brillantblau G.

P2X7-Rezeptor = biological target: T1, P2X7-Rezeptor (Rattus norvegicus, UniProt Q64663); conditions: Jiang et al. 2000; cited from earlier work
T1 sequence (Q64663 1-595): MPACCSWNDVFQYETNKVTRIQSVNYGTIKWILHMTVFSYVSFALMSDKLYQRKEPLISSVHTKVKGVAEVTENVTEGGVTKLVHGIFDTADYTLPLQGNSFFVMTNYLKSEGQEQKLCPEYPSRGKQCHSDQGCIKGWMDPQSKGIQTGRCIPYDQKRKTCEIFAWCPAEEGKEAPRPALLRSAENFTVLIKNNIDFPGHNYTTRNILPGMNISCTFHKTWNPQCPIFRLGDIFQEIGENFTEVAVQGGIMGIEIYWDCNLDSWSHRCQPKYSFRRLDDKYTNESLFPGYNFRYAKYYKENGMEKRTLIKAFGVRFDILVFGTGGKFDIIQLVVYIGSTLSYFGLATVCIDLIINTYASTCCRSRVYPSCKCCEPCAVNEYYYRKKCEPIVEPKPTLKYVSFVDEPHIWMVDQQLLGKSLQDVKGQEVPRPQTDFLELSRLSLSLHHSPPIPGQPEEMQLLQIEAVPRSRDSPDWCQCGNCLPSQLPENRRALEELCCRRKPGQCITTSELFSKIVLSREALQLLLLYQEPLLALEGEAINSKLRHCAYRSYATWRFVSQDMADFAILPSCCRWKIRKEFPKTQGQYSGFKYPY

[1] = tested on: Escherichia coli (E. coli); assay: Bacteriostatic effect of BAK with BBG/BBR: turbidity after 24 h incubation; type: cell-based; set-up: key to Bakterienwachstum nach 24 h Inkubation: +: Bakterienwachstum nach 24 h Inkubation; -: kein Bakterienwachstum nach 24 h Inkubation
Description: as §1

Q: What does the source list for `CCOc1ccc(Nc2ccc(C(=C3C=CC(=[N+](CC)Cc4cccc(S(=O)(=O)[O-])c4)C=C3C)c3ccc(N(CC)Cc4cccc(S(=O)(=O)O)c4)cc3C)cc2)cc1` [BBG, Brillantblau G]?
A: Bakterienwachstum nach 24 h Inkubation (Bacillus megaterium; 0,015% BBG + Octenidin 0,003%): +/-; Bakterienwachstum nach 24 h Inkubation (Bacillus megaterium; 0,030% BBG + Octenidin 0,005%): +/-; Bakterienwachstum nach 24 h Inkubation (Bacillus megaterium; 0,030% BBG + Octenidin 0,007%): +/-; Hemmung des P2X7-Rezeptors (P2X7-Rezeptor): spezifisch nicht-kompetitiv hemmt; Bakterienwachstum nach 24 h Inkubation ([1]; 0,007% G + BAK 0,01%): -; Bakterienwachstum nach 24 h Inkubation ([1]; 0,007% G + BAK 0,001 %): +; Bakterienwachstum nach 24 h Inkubation ([1]; 0,007% G + BAK 0,0016%): +; Bakterienwachstum nach 24 h Inkubation ([1]; 0,007% G + BAK 0,0025%): +; Bakterienwachstum nach 24 h Inkubation ([1]; 0,007% G + BAK 0,004%): -; Bakterienwachstum nach 24 h Inkubation ([1]; 0,007% G + BAK 0,006%): -; Bakterienwachstum nach 24 h Inkubation ([1]; 0,015% G + BAK 0,01%): -; Bakterienwachstum nach 24 h Inkubation ([1]; 0,015% G + BAK 0,001 %): +; Bakterienwachstum nach 24 h Inkubation ([1]; 0,015% G + BAK 0,0016%): +; Bakterienwachstum nach 24 h Inkubation ([1]; 0,015% G + BAK 0,0025%): +; Bakterienwachstum nach 24 h Inkubation ([1]; 0,015% G + BAK 0,004%): +; Bakterienwachstum nach 24 h Inkubation ([1]; 0,015% G + BAK 0,006%): -; Bakterienwachstum nach 24 h Inkubation ([1]; 0,030% G + BAK 0,01%): +; Bakterienwachstum nach 24 h Inkubation ([1]; 0,030% G + BAK 0,001 %): +; Bakterienwachstum nach 24 h Inkubation ([1]; 0,030% G + BAK 0,0016%): +; Bakterienwachstum nach 24 h Inkubation ([1]; 0,030% G + BAK 0,0025%): +; Bakterienwachstum nach 24 h Inkubation ([1]; 0,030% G + BAK 0,004%): +; Bakterienwachstum nach 24 h Inkubation ([1]; 0,030% G + BAK 0,006%): +; Bakterienwachstum nach 24 h Inkubation ([1]; 0,030% G, Kein BAK): +; Einfluss auf die bakteriostatische Wirkung von BAK ([1]; Gram-negative Bakterien (E. coli), concentration dependent): einen etwas größeren Einfluss als BBR; Einfluss auf das Bakterienwachstum ([1]; dye alone, no BAK (rechte Spalte, Tabelle 1)): beeinflussen das Bakterienwachstum nicht
